Test results from patent US7951921B2, “Multivalent carriers of bi-specific antibodies” (Immunomedics, Inc., priority 2003, dated 2011).
Primed or numbered codes have the meaning given here. DTPA′ = diethylenetriaminepentaacetic acid

How the values were obtained:
[1] = Stability of IMP 246 and its complex in fresh mouse serum, size exclusion HPLC; format: in vitro ADME; conditions: 37° C.
Method: […] A 10 μL aliquot was removed and mixed with 5 μL of 3.2 mg/mL 14IgG^(I253A)-(734scFv)2 and diluted with 40 μL water. A 10 μL aliquot of the diluted mixture was then examined by size exclusion HPLC.
A 4 μL aliquot of the labeled peptide solution was mixed with 10 μL of the 3.2 mg/mL hMN-14 IgG^(I253A)-(734scFv)2 and diluted in 400 μL of fresh mouse serum. The serum sample was incubated at 37° C. for 16 hr and then analyzed by size exclusion HPLC.
Three broad peaks comprised about 20%, 41% and 37% of the area under the curve of the HPLC tracing.

Raji cells = assay: Apoptosis of Raji cells after cross-linking of bound hA20IgG-(734scFv)2; format: cell-based; conditions: Raji cells incubated with hA20IgG-(734scFv)2, 3 days, 37 degrees C.
Method: Raji cells in culture are incubated with hA20IgG-(734scFv)2. To one set of wells is added IMP-246 to cross-link molecules of hA20IgG-(734scFv)2 bound to CD20 on the surface of the Raji cells. A second set of wells to which IMP-246 is not added serve as controls, and both sets of wells incubated at 37 degrees C.
An average of 5 molecules IMP-222 are conjugated to human serum albumin (hAlb-222). The experiment described in the paragraph above is repeated, but hAb-222 is used to cross-link molecules of hA20IgG-(734scFv)2 bound to CD20 on the surface of the Raji cells, in place of IMP-246.

[2] = system: hMN-14IgG^(I253A)-(734scFv)2; assay: Stoichiometry of targetable complexes, In-111 IMP 246 mixed with bsAb, size exclusion HPLC; format: binding; conditions: 1:10 (IMP 246:bsAb) mole ratio; peak at 8.5 min
Method: (§1) This Example describes experiments designed to determine the stoichiometry of different species of targetable complexes that arise when the targetable divalent construct IMP 246 is mixed with bsAbs hMN-14IgG^(I253A)-(734scFv)2, and hMN-14IgG-(734scFv)2.
(§2) The peptide IMP 246 was dissolved in 100 mL of a solution which contained 0.418 g citric acid and 10.06 g of HPCD buffered at pH 4.3. The solution was filter sterilized through a 0.22 ? m Millex GV filters in 1 mL aliquots into vials that were immediately frozen and lyophilized.
(§3) The IMP 246 was labeled with In-111 as follows. The In-111 was diluted with 0.5 mL water and added to a lyophilized IMP 246 kit. The solution was allowed to incubate at room temperature for 10 min. A 1.5 mL aliquot of a solution containing […] in 0.5 M NaOAc buffer pH 7.17 was then added to the kit.
(§4) The In-111-labelled IMP 246 was mixed with bsAb in a 1:10 (IMP 246:bsAb) mole ratio and then examined by size exclusion HPLC. When mixed with the mutant bsAb, i.e., hMN-14IgG^(I253A)-(734scFv)2, about 90% of the In-111 label was found at a clean sharp peak at 8.5 min (FIG. 8A). When mixed with hMN-14IgG-(734scFv)2, the peak was somewhat broader, comprised about 83% of the In-111 label and was found at 7.5 min (FIG. 8B). In contrast, the antibody:peptide complexes formed when IMP 192 was used were found at 9.5 min (FIG. 7).

hMN-14IgG-(734scFv)2 = assay: as above; format: binding; conditions: 1:10 (IMP 246:bsAb) mole ratio; peak at 7.5 min
Method: as §1, §2, §3, §4

For “[Ac-Cys-Lys(DTPA)-Tyr-Lys(DTPA)-NH2]2 (Ac-CK(DTPA′)YK(DTPA′)-NH2; also: disulfide-linked homodimer of two chains, disulfide at 1, other end not in the chain) [IMP 246]”, the “area under the curve of HPLC tracing in distinct peak at predicted position” value ([1]; in presence of bi-specific antibody, mouse serum, 16 hr) was no less than 90%, the “stability in mouse serum” value ([1]; peptide alone, 16 hours) was “unstable” and the apoptosis (Raji cells) was “extensive apoptosis”. The “In-111 label found in complex peak” value [2] was “about 90%” and the “In-111 label found in complex peak” value (hMN-14IgG-(734scFv)2) was “about 83%”.
